Assay results: PubChem BioAssay (NCI)
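Five concentrations, 48 hours, 96-well plates. TGI marks complete inhibition of growth.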

Legend:
Experiment in all cases: inhibition of tumour cell growth, NCI panel, 48 h
M19-MEL melanoma = tested on: M19-MEL melanoma
HOP-18 NSCLC = tested on: HOP-18 NSCLC
COLO 205 colon = tested on: COLO 205 colon
TK-10 renal = tested on: TK-10 renal
LXFL 529 NSCLC = tested on: LXFL 529 NSCLC
DMS 114 small cell lung = tested on: DMS 114 small cell lung
IGROV1 ovarian = tested on: IGROV1 ovarian
SNB-78 CNS = tested on: SNB-78 CNS
K-562 leukemia = tested on: K-562 leukemia
KM20L2 colon = tested on: KM20L2 colon
HCC-2998 colon = tested on: HCC-2998 colon
SF-268 CNS = tested on: SF-268 CNS
T-47D breast = tested on: T-47D breast

Compound	TGI (M19-MEL melanoma) [µM]	TGI (HOP-18 NSCLC) [µM]	TGI (COLO 205 colon) [µM]	TGI (TK-10 renal) [µM]	TGI (LXFL 529 NSCLC) [µM]	TGI (DMS 114 small cell lung) [µM]	TGI (IGROV1 ovarian) [µM]	TGI (SNB-78 CNS) [µM]	TGI (K-562 leukemia) [µM]	TGI (KM20L2 colon) [µM]	TGI (HCC-2998 colon) [µM]	TGI (SF-268 CNS) [µM]	TGI (T-47D breast) [µM]
CCc1cccc(C)c1NC(=O)NS(=O)(=O)c1ccc(C)cc1	> 100	> 100	> 100	> 100	> 100	> 100	> 100	> 100	> 100	> 100	> 100	> 100	–
CC1(C)OCN(c2ccc(Cl)cc2)Cn2c1nc1ccccc12	> 100	> 100	12	> 100	> 100	53.2	> 26.7	> 100	> 100	> 100	> 80.9	> 100	> 100
COC(=O)C1=C(C(=O)OC)C2(C(=O)OC)OC1(OC)C(C1(C(=O)OC)C(C(=O)OC)=C1C(=O)OC)=C2C(=O)OC (stereo not given)	> 100	> 100	> 100	> 100	> 100	> 100	> 100	> 100	> 100	> 100	> 100	> 100	–
O=c1c([Se]c2coc3ccccc3c2=O)coc2ccccc12	28.6	29.3	29.7	31.6	28.8	31.5	22.3	34.7	> 100	26.4	33.2	33.8	–
COc1ccc(C(=O)C=C2NCCN2)cc1	> 100	> 100	> 100	> 100	> 100	> 100	> 100	> 100	> 100	> 100	> 100	> 100	–
COc1cc(C2C(C(=O)Nc3ccccc3)=C(C)NC(C)=C2C(=O)Nc2ccccc2)ccc1O	> 100	> 100	60.4	> 100	> 100	> 100	> 100	> 100	> 100	40	> 100	> 100	–
O=c1[nH]c(=S)[nH]c(O)c1/C=C1\C=CC=N1	> 100	85.7	32	37.7	21.9	23.3	65	67.4	> 100	41.1	25	55.1	–
